How the values were obtained:
Format in all cases: functional
MOLT-4 [1] = experiment: Cytotoxicity against human MOLT4 cells assessed as growth inhibition after 48 hrs by sulforhodamine B assay; details: MOLT-4, 48 h; for CC50: read-out: LC50 (the source's name)
RPMI-8226 = experiment: Cytotoxicity against human RPMI8226 cells assessed as growth inhibition after 48 hrs by sulforhodamine B assay; details: RPMI-8226, 48 h
NCI-H23 = experiment: Cytotoxicity against human NCI-H23 cells assessed as growth inhibition after 48 hrs by sulforhodamine B assay; details: NCI-H23, 48 h; for CC50: read-out: LC50 (the source's name)
PC-3 = experiment: Cytotoxicity against human PC3 cells assessed as growth inhibition after 48 hrs by sulforhodamine B assay; details: PC-3, 48 h
ACHN = experiment: Cytotoxicity against human ACHN cells assessed as cell growth at 0.01 uM after 48 hrs by sulforhodamine B assay relative to control; details: read-out: Activity
786-0 [2] = experiment: Cytotoxicity against human 786-0 cells assessed as cell growth at 0.01 uM after 48 hrs by sulforhodamine B assay relative to control; details: 786-0, 48 h, read-out: Activity
OVCAR-8 = experiment: Cytotoxicity against human OVCAR8 cells assessed as cell growth at 0.01 uM after 48 hrs by sulforhodamine B assay relative to control; details: OVCAR-8, 48 h, read-out: Activity
IGROV-1 [3] = experiment: Cytotoxicity against human IGROV1 cells assessed as cell growth at 0.01 uM after 48 hrs by sulforhodamine B assay relative to control; details: IGROV-1, 48 h, read-out: Activity
SK-MEL-28 [4] = experiment: Cytotoxicity against human SK-MEL-28 cells assessed as cell growth at 0.01 uM after 48 hrs by sulforhodamine B assay relative to control; details: SK-MEL-28, 48 h, read-out: Activity
U-251 = experiment: Cytotoxicity against human U251 cells assessed as cell growth at 0.01 uM after 48 hrs by sulforhodamine B assay relative to control; details: U-251, 48 h, read-out: Activity
HCT-15 [5] = experiment: Cytotoxicity against human HCT15 cells assessed as cell growth at 0.1 uM after 48 hrs by sulforhodamine B assay relative to control; details: HCT-15, 48 h, read-out: Activity
MDA-MB-435 = experiment: Cytotoxicity against human MDA-MB-435 cells assessed as cell growth at 0.1 uM after 48 hrs by sulforhodamine B assay relative to control; details: MDA-MB-435, 48 h, read-out: Activity
OVCAR-5 = experiment: Cytotoxicity against human OVCAR5 cells assessed as cell growth at 0.1 uM after 48 hrs by sulforhodamine B assay relative to control; details: OVCAR-5, 48 h, read-out: Activity
SK-OV-3 = experiment: Cytotoxicity against human SKOV3 cells assessed as cell growth at 0.1 uM after 48 hrs by sulforhodamine B assay relative to control; details: SK-OV-3, 48 h, read-out: Activity
786-0 [6] = experiment: Cytotoxicity against human 786-0 cells assessed as cell growth at 0.1 uM after 48 hrs by sulforhodamine B assay relative to control; details: 786-0, 48 h, read-out: Activity
RXF 393 [7] = experiment: Cytotoxicity against human RXF393 cells assessed as cell growth at 0.1 uM after 48 hrs by sulforhodamine B assay relative to control; details: RXF 393, 48 h, read-out: Activity
UO-31 = experiment: Cytotoxicity against human UO31 cells assessed as cell growth at 0.1 uM after 48 hrs by sulforhodamine B assay relative to control; details: UO-31, 48 h, read-out: Activity
MDA-MB-231 = experiment: Cytotoxicity against human MDA-MB-231 cells assessed as cell growth at 0.1 uM after 48 hrs by sulforhodamine B assay relative to control; details: MDA-MB-231, 48 h, read-out: Activity
K562 = experiment: Cytotoxicity against human K562 cells assessed as cell growth at 1 uM after 48 hrs by sulforhodamine B assay relative to control; details: K562, 48 h, read-out: Activity
HCC 2998 [8] = experiment: Cytotoxicity against human HCC2998 cells assessed as cell growth at 1 uM after 48 hrs by sulforhodamine B assay relative to control; details: HCC 2998, 48 h, read-out: Activity
HCT-15 [9] = experiment: Cytotoxicity against human HCT15 cells assessed as cell growth at 1 uM after 48 hrs by sulforhodamine B assay relative to control; details: HCT-15, 48 h, read-out: Activity
SNB-19 = experiment: Cytotoxicity against human SNB19 cells assessed as cell growth at 1 uM after 48 hrs by sulforhodamine B assay relative to control; details: SNB-19, 48 h, read-out: Activity
UACC-62 = experiment: Cytotoxicity against human UACC62 cells assessed as cell growth at 1 uM after 48 hrs by sulforhodamine B assay relative to control; details: UACC-62, 48 h, read-out: Activity
786-0 [10] = experiment: Cytotoxicity against human 786-0 cells assessed as cell growth at 1 uM after 48 hrs by sulforhodamine B assay relative to control; details: 786-0, 48 h, read-out: Activity
A498 = experiment: Cytotoxicity against human A498 cells assessed as cell growth at 1 uM after 48 hrs by sulforhodamine B assay relative to control; details: A498, 48 h, read-out: Activity
RXF 393 [11] = experiment: Cytotoxicity against human RXF393 cells assessed as cell growth at 1 uM after 48 hrs by sulforhodamine B assay relative to control; details: RXF 393, 48 h, read-out: Activity
MOLT-4 [12] = experiment: Cytotoxicity against human MOLT4 cells assessed as cell growth at 10 uM after 48 hrs by sulforhodamine B assay relative to control; details: MOLT-4, 48 h, read-out: Activity
IGROV-1 [13] = experiment: Cytotoxicity against human IGROV1 cells assessed as cell growth at 10 uM after 48 hrs by sulforhodamine B assay relative to control; details: IGROV-1, 48 h, read-out: Activity
OVCAR-4 = experiment: Cytotoxicity against human OVCAR4 cells assessed as cell growth at 10 uM after 48 hrs by sulforhodamine B assay relative to control; details: OVCAR-4, 48 h, read-out: Activity
NCI/ADR-RES = experiment: Cytotoxicity against human NCI/ADR-RES cells assessed as cell growth at 10 uM after 48 hrs by sulforhodamine B assay relative to control; details: read-out: Activity
TK-10 = experiment: Cytotoxicity against human TK10 cells assessed as cell growth at 10 uM after 48 hrs by sulforhodamine B assay relative to control; details: TK-10, 48 h, read-out: Activity
HCC 2998 [14] = experiment: Cytotoxicity against human HCC2998 cells assessed as cell growth at 100 uM after 48 hrs by sulforhodamine B assay relative to control; details: HCC 2998, 48 h, read-out: Activity
HCT-15 [15] = experiment: Cytotoxicity against human HCT15 cells assessed as cell growth at 100 uM after 48 hrs by sulforhodamine B assay relative to control; details: HCT-15, 48 h, read-out: Activity
HT-29 = experiment: Cytotoxicity against human HT-29 cells assessed as cell growth at 100 uM after 48 hrs by sulforhodamine B assay relative to control; details: HT-29, 48 h, read-out: Activity
SK-MEL-28 [16] = experiment: Cytotoxicity against human SK-MEL-28 cells assessed as cell growth at 100 uM after 48 hrs by sulforhodamine B assay relative to control; details: SK-MEL-28, 48 h, read-out: Activity
BT-549 = experiment: Cytotoxicity against human BT549 cells assessed as cell growth at 100 uM after 48 hrs by sulforhodamine B assay relative to control; details: BT-549, 48 h, read-out: Activity

## COc1ccc(-c2cc(/C=C/C(=O)c3ccc(N)cc3)[nH]n2)cc1OC
MOLT-4 [1]
  GI50: 3.11 µM
  TGI: 16.5 µM
  CC50: > 100 µM
RPMI-8226
  GI50: 1.28 µM
  LC50: > 100 µM
  TGI: 5.52 µM
NCI-H23
  GI50: 4.21 µM
  TGI: 19.3 µM
  CC50: 95.6 µM
PC-3
  GI50: 3.71 µM
  LC50: > 100 µM
  TGI: 19.8 µM
ACHN
  growth at 0.01 µM: 93%
786-0 [2]
  growth at 0.01 µM: 91%
OVCAR-8
  growth at 0.01 µM: 98%
IGROV-1 [3]
  growth at 0.01 µM: 106%
SK-MEL-28 [4]
  growth at 0.01 µM: 92%
U-251
  growth at 0.01 µM: 95%
HCT-15 [5]
  growth at 0.1 µM: 95%
MDA-MB-435
  growth at 0.1 µM: 98%
OVCAR-5
  growth at 0.1 µM: 95%
SK-OV-3
  growth at 0.1 µM: 102%
786-0 [6]
  growth at 0.1 µM: 95%
RXF 393 [7]
  growth at 0.1 µM: 92%
UO-31
  growth at 0.1 µM: 99%
MDA-MB-231
  growth at 0.1 µM: 107%
K562
  growth at 1 µM: 71%
HCC 2998 [8]
  growth at 1 µM: 105%
HCT-15 [9]
  growth at 1 µM: 73%
SNB-19
  growth at 1 µM: 84%
UACC-62
  growth at 1 µM: 95%
786-0 [10]
  growth at 1 µM: 87%
A498
  growth at 1 µM: 89%
RXF 393 [11]
  growth at 1 µM: 94%
MOLT-4 [12]
  growth at 10 µM: 6%
IGROV-1 [13]
  growth at 10 µM: 24%
OVCAR-4
  growth at 10 µM: 24%
NCI/ADR-RES
  growth at 10 µM: 37%
TK-10
  growth at 10 µM: 56%
HCC 2998 [14]
  growth at 100 µM: -91%
HCT-15 [15]
  growth at 100 µM: -71%
HT-29
  growth at 100 µM: -59%
SK-MEL-28 [16]
  growth at 100 µM: -93%
BT-549
  growth at 100 µM: -98%

## COc1ccc(-c2cc(/C=C/C(=O)c3cc(OC)c(OC)c(OC)c3)[nH]n2)cc1OC
MOLT-4 [1]
  GI50: 1.81 µM
  TGI: 8.86 µM
  CC50: > 100 µM
RPMI-8226
  GI50: 0.29 µM
  LC50: > 100 µM
  TGI: 1.66 µM
NCI-H23
  GI50: 1.97 µM
  TGI: 4.91 µM
  CC50: > 100 µM
PC-3
  GI50: 1.99 µM
  LC50: 48.2 µM
  TGI: 10.3 µM
ACHN
  growth at 0.01 µM: 95%
786-0 [2]
  growth at 0.01 µM: 100%
OVCAR-8
  growth at 0.01 µM: 100%
IGROV-1 [3]
  growth at 0.01 µM: 103%
SK-MEL-28 [4]
  growth at 0.01 µM: 95%
U-251
  growth at 0.01 µM: 99%
HCT-15 [5]
  growth at 0.1 µM: 90%
MDA-MB-435
  growth at 0.1 µM: 91%
OVCAR-5
  growth at 0.1 µM: 92%
SK-OV-3
  growth at 0.1 µM: 87%
786-0 [6]
  growth at 0.1 µM: 91%
RXF 393 [7]
  growth at 0.1 µM: 102%
UO-31
  growth at 0.1 µM: 82%
MDA-MB-231
  growth at 0.1 µM: 93%
K562
  growth at 1 µM: 43%
HCC 2998 [8]
  growth at 1 µM: 105%
HCT-15 [9]
  growth at 1 µM: 57%
SNB-19
  growth at 1 µM: 77%
UACC-62
  growth at 1 µM: 88%
786-0 [10]
  growth at 1 µM: 81%
A498
  growth at 1 µM: 65%
RXF 393 [11]
  growth at 1 µM: 80%
MOLT-4 [12]
  growth at 10 µM: -4%
IGROV-1 [13]
  growth at 10 µM: -7%
OVCAR-4
  growth at 10 µM: -11%
NCI/ADR-RES
  growth at 10 µM: 9%
TK-10
  growth at 10 µM: 7%
HCC 2998 [14]
  growth at 100 µM: -82%
HCT-15 [15]
  growth at 100 µM: -49%
HT-29
  growth at 100 µM: -66%
SK-MEL-28 [16]
  growth at 100 µM: -82%
BT-549
  growth at 100 µM: -93%

## COc1ccc(C(=O)/C=C/c2cc(-c3ccc(OC)c(OC)c3)n[nH]2)cc1OC
MOLT-4 [1]
  GI50: 2.2 µM
  TGI: > 100 µM
  CC50: > 100 µM
RPMI-8226
  GI50: 0.357 µM
  TGI: 2.26 µM
NCI-H23
  GI50: 2.25 µM
  TGI: 5.7 µM
  CC50: > 100 µM
PC-3
  GI50: 1.98 µM
  TGI: 35.7 µM
ACHN
  growth at 0.01 µM: 93%
786-0 [2]
  growth at 0.01 µM: 92%
OVCAR-8
  growth at 0.01 µM: 99%
IGROV-1 [3]
  growth at 0.01 µM: 104%
SK-MEL-28 [4]
  growth at 0.01 µM: 89%
U-251
  growth at 0.01 µM: 95%
HCT-15 [5]
  growth at 0.1 µM: 95%
MDA-MB-435
  growth at 0.1 µM: 94%
OVCAR-5
  growth at 0.1 µM: 94%
SK-OV-3
  growth at 0.1 µM: 97%
786-0 [6]
  growth at 0.1 µM: 96%
RXF 393 [7]
  growth at 0.1 µM: 84%
UO-31
  growth at 0.1 µM: 91%
MDA-MB-231
  growth at 0.1 µM: 99%
K562
  growth at 1 µM: 38%
HCC 2998 [8]
  growth at 1 µM: 95%
HCT-15 [9]
  growth at 1 µM: 53%
SNB-19
  growth at 1 µM: 78%
UACC-62
  growth at 1 µM: 89%
786-0 [10]
  growth at 1 µM: 78%
A498
  growth at 1 µM: 63%
RXF 393 [11]
  growth at 1 µM: 76%
MOLT-4 [12]
  growth at 10 µM: 5%
IGROV-1 [13]
  growth at 10 µM: 6%
OVCAR-4
  growth at 10 µM: -7%
NCI/ADR-RES
  growth at 10 µM: 16%
TK-10
  growth at 10 µM: 25%
HCC 2998 [14]
  growth at 100 µM: -91%
HCT-15 [15]
  growth at 100 µM: -10%
HT-29
  growth at 100 µM: -39%
SK-MEL-28 [16]
  growth at 100 µM: -32%
BT-549
  growth at 100 µM: -89%

From ChEMBL document CHEMBL4138123, “Design, synthesis and biological evaluation of novel pyrazolochalcones as potential modulators of PI3K/Akt/mTOR pathway and inducers of apoptosis in breast cancer cells” (Eur J Med Chem, 2017)
